Laboratory results published in ChEMBL document CHEMBL3988442, “University of Dundee, Small-Polar-MMV Screening Library” (2021).
Where “and” joins values, the source holds several entries; their conditions need not be identical. Equal entries are not always repeated.

Experiments:
[1] = molecular target: T1, Coenzyme A biosynthesis bifunctional protein CoaBC (Mycobacterium tuberculosis (strain ATCC 25618 / H37Rv), UniProt P9WNZ1); experiment: Biomol Green assay for MtCoaBC inhibitor, OD650 read; format: functional
T1 sequence (P9WNZ1 whole entry): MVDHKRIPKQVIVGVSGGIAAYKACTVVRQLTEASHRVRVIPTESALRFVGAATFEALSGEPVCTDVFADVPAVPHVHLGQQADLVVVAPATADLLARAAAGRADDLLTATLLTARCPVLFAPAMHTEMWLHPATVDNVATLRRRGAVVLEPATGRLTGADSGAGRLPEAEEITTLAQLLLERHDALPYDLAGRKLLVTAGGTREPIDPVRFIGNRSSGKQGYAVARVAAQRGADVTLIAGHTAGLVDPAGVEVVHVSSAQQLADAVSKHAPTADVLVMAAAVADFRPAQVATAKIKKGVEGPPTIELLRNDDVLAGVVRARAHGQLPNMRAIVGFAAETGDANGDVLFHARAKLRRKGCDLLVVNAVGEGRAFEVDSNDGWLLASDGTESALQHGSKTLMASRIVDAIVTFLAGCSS

ClpP1P2 = ClpP1P2 (Mycobacterium tuberculosis (strain ATCC 25618 / H37Rv), UniProt P9WPC3+P9WPC5); experiment: in vitro assay to detect presence of AMC directly proportional to the activity of ClpP1P2. GHDDI collaboration.; format: functional
Plasmodium falciparum = experiment: Calibr Malaria Delayed Death Assay SOP; format: functional, organism-based
Histidine--tRNA ligase = molecular target: T2, Histidine--tRNA ligase (Leishmania infantum, UniProt A4I591); experiment: Leishmania infantum Histidine tRNA synthetase (LdHisRS); format: functional
T2 sequence (A4I591 whole entry): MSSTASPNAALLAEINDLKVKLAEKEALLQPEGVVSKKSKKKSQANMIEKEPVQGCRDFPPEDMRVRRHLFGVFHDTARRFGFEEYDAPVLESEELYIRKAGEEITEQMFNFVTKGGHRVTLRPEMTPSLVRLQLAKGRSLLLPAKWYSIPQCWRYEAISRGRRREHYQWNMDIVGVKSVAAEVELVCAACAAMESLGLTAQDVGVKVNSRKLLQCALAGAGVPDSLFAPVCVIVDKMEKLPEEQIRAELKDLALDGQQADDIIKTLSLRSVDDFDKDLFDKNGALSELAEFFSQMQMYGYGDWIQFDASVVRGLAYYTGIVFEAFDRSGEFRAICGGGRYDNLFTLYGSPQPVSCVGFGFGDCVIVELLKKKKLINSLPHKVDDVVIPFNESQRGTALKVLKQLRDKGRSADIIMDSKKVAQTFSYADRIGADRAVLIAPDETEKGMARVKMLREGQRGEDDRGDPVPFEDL

Tryptophan--tRNA ligase = Tryptophan--tRNA ligase (Mycobacterium tuberculosis (strain ATCC 25618 / H37Rv), UniProt P9WFT3); experiment: Biochemical assay for Mt-TrpRS; format: functional
[2] = In vitro enzyme assay to detect hydrolysis of chlorophenol red-beta-D-[…] directly proportional to the number of Toxoplasma stably expressing beta-galactosidase; format: functional, organism-based, Toxoplasma gondii
Leishmania donovani = experiment: Leishmania intramacrophage assay; format: functional, organism-based; details: Leishmania donovani

## Cc1ccc(-c2cc(-c3nc(CN4CCN(C)CC4)no3)[nH]n2)s1
[1]
  IC50: > 30.2 µM
ClpP1P2
  IC50: > 100 µM

## CCN(CC)CCNS(=O)(=O)c1cccc(CSC)c1
[1]
  IC50: > 30.2 µM
Plasmodium falciparum
  pIC50: 6.161
Plasmodium falciparum; Plasmodium falciparum
  IC50: 0.551 µM

## Cc1cc(N2CCC(O)CC2)nc(C2CCCN2C)n1 (centres undefined)
[1]
  IC50: > 30.2 µM
Histidine--tRNA ligase
  IC50: 31 µM and 38.1 µM

## COc1ccsc1C(=O)Nc1cc(Br)c(=O)n(C)c1
[1]
  IC50: > 30.2 µM
Histidine--tRNA ligase
  IC50: 19.7 µM and 23.3 µM

## Cc1ccc(C(=O)O)cc1CNC(=O)CN1CC[C@](C)(O)C(C)(C)C1
[1]
  IC50: > 30.2 µM

## NC(=O)C1CN(C(=O)Nc2ccccc2Oc2ccccc2Cl)CCO1 (centres undefined)
[1]
  IC50: > 30.2 µM

## Cc1cc(C2CCCN2CCC(=O)N2CCc3sccc3C2)no1 (centres undefined)
[1]
  IC50: > 30.2 µM

## CC[C@@H]1N(Cc2cc(OC)cc(OC)c2)CCC[C@]12CCC(=O)N2C
[1]
  IC50: > 30.2 µM

## Cc1ncnc2c1CCN(C(=O)c1ccoc1)CC2
[1]
  IC50: > 30.2 µM

## Cc1noc([C@@H]2C[C@H](NS(=O)(=O)Cc3ccccc3)CN2C)n1
[1]
  IC50: > 30.2 µM

## Cc1nn(C)c(Cl)c1C1CCCN1CC(=O)Nc1cccnc1 (centres undefined)
[1]
  IC50: > 30.2 µM

## Cc1cc(C(F)(F)F)nn1CC(C)C(=O)Nc1ccccn1 (centres undefined)
[1]
  IC50: > 30.2 µM

## CC(Cc1ccco1)NC(=O)CCn1cccn1 (centres undefined)
[1]
  IC50: > 30.2 µM

## O=C1CN(Cc2cn(CC3CCCN(C4CCSCC4)C3)nn2)CCN1 (centres undefined)
[1]
  IC50: > 30.2 µM

## NC(=O)c1cc2c(nc1Oc1cccc(CN3CCCC3)c1F)CCC2
[1]
  IC50: > 30.2 µM

## CCN(C)C[C@@H]1CN(C(=O)NC2CCCCC2)C[C@@H]1CO
[1]
  IC50: > 30.2 µM

## Cc1csc(CCNCc2cnc3c(c2)c(C)nn3C)n1
[1]
  IC50: > 30.2 µM

## Cc1c[nH]nc1C1CCN(C(=O)C2CCOCC2)C1 (centres undefined)
[1]
  IC50: > 30.2 µM
Tryptophan--tRNA ligase
  IC50: > 195 µM

## Cc1nn(C)c(C)c1CN(C)C(=O)c1cc(NC(=O)C2CC2)n(C)n1
[1]
  IC50: > 30.2 µM
[2]; Toxoplasma gondii
  IC50: > 50.1 µM

## O=S(=O)(NC1CCCCC12OCCO2)c1cc(F)cc(F)c1 (centres undefined)
[1]
  IC50: > 30.2 µM

## CCn1c(NCc2ccccn2)nc2c(C)nn(C)c2c1=O
[1]
  IC50: > 30.2 µM
[2]
  pIC50: < 4.3 and 4.672

## OCCN(Cc1ccncc1)CC1(c2ccc(Cl)cc2)CCCC1
[1]
  IC50: > 30.2 µM

## Cc1cc(C)c(C(=O)NC(c2nnc3n2CCNCC3)C(C)C)c(C)c1 (centres undefined)
[1]
  IC50: > 30.2 µM

## CN(C)C(=O)CN1CCC2(CCCN(Cc3cccn3C)C2)C1=O (centres undefined)
[1]
  IC50: > 30.2 µM

## CN1C(=O)C2(CCN(c3nccc4occc34)CC2)c2ccccc21
[1]
  IC50: > 30.2 µM

## CN1CCOC(CNCc2cccc(OC(F)(F)F)c2)C1 (centres undefined)
[1]
  IC50: > 30.2 µM

## Cc1ccc(CNC(=O)COc2ccc3c(c2)OCC3O)cc1 (centres undefined)
[1]
  IC50: > 30.2 µM

## Cc1ccc(NS(=O)(=O)c2cnn(-c3ccccc3)c2)c(C(=O)O)c1
[1]
  IC50: 22.5 µM and 20.5 µM
Histidine--tRNA ligase
  IC50: 38.9 µM and 18.2 µM

## CC(C)N1CCC(NC(=O)c2cn(-c3ccc(F)cc3)nn2)C1 (centres undefined)
[1]
  IC50: > 30.2 µM

## CCn1ncc2c1NC(=O)CC2c1cnc(-c2ccccn2)nc1 (centres undefined)
[1]
  IC50: > 30.2 µM

## CN1CCCC1c1ccc(N2CCOCC2)cn1 (centres undefined)
[1]
  IC50: > 30.2 µM

## CC(c1nc(-c2ccccc2)no1)N1CCc2c(ncn2C2CC2)C1 (centres undefined)
[1]
  IC50: > 30.2 µM

## O=c1cc(C2CCNCC2)nc(CCc2ccccn2)[nH]1
[1]
  IC50: > 30.2 µM

## O=C(O)CN1CCC(F)(F)C2(CCN(c3ccccc3)C2)C1 (centres undefined)
[1]
  IC50: > 30.2 µM
Leishmania donovani
  IC50: > 50.1 µM
Histidine--tRNA ligase
  IC50: 43.6 µM and 39.5 µM

## Cc1nc(Nc2nnc(C)s2)cc(C2CCCN2C)n1 (centres undefined)
[1]
  IC50: > 30.2 µM

## CN(C)c1ncc(CN2CCCC(Nc3ccc4c(c3)OCCO4)C2)s1 (centres undefined)
[1]
  IC50: > 30.2 µM

## Cc1ccc(CN2C[C@@H]3CCN(Cc4ccncc4)C(=O)[C@H]3C2)s1
[1]
  IC50: > 30.2 µM
ClpP1P2
  IC50: 34.3 µM

## CS(=O)(=O)c1ccc(-c2c[nH]c([C@@H]3COCCN3)n2)cc1
[1]
  IC50: > 30.2 µM

## Cc1nn(-c2ccccc2)cc1C(=O)N1CCCC1c1cnn(C)c1 (centres undefined)
[1]
  IC50: > 30.2 µM

## CCc1noc(C(C)N2CCN(CCN3CCCC3=O)CC2)n1 (centres undefined)
[1]
  IC50: > 30.2 µM

## CCOCC1CN(Cc2ccoc2)Cc2cn(CC3CC3)nc21 (centres undefined)
[1]
  IC50: > 30.2 µM

## Cc1csc(CN2CCC(C(=O)O)(n3ccc(-c4ccco4)n3)CC2)n1
[1]
  IC50: > 30.2 µM
